Measurements published in ChEMBL document CHEMBL6103615, “Thymidylate Kinase-Targeted Antimicrobial Peptides via Phage Display: A Novel Strategy against Gram-Negative Bacteria” (J Med Chem, 2025).
In brackets after ≈: the same amount, converted by molar mass. Activity calls are given as the source filed them. The rule behind the calls is not given here.

Key:
[1] = test system: Escherichia coli; test: Binding affinity to Escherichia coli K88 TraV at 128 uM by BLI assay
[2] = test system: Escherichia coli; test: Binding affinity to Escherichia coli K88 TMK at 128 uM by BLI assay
[3] = test system: Enterococcus faecalis; test: Antibacterial activity against Enterococcus faecalis 29212 incubated for 12 to 18 hrs by microbroth dilution method; format: functional; details: time 12-18 hrs
[4] = Hemolytic activity against human red blood cells at 2 to 128 uM relative to control; format: toxicity, cell-based, Erythrocyte; details: dose 2-128 µM, read-out: Activity
[5] = Cytotoxicity against mouse RAW264.7 cells assessed as cell viability at 128 uM incubated for 4 hrs by MTT assay relative to control; format: toxicity, cell-based; details: read-out: Activity
[6] = test system: Lacticaseibacillus rhamnosus; test: Antibacterial activity against Lactobacillus rhamnosus 7469 incubated for 12 to 18 hrs by microbroth dilution method; format: functional; details: time 12-18 hrs
[7] = test system: Lactiplantibacillus plantarum; test: Antibacterial activity against Lactobacillus plantarum 8014 incubated for 12 to 18 hrs by microbroth dilution method; format: functional; details: time 12-18 hrs
[8] = Antibacterial activity against Salmonella choleraesuis 21493 incubated for 12 to 18 hrs by microbroth dilution method; format: functional, Salmonella enterica subsp. enterica serovar Choleraesuis; details: Salmonella enterica, time 12-18 hrs
[9] = Cytotoxicity against porcine IPEC-J2 cells assessed as cell viability at 128 uM incubated for 4 hrs by MTT assay relative to control; format: toxicity, cell-based, Sus scrofa; details: pig, read-out: Activity
[10] = test system: Lactococcus lactis; test: Antibacterial activity against Lactococcus lactis NZ9000 incubated for 12 to 18 hrs by microbroth dilution method; format: functional; details: time 12-18 hrs
[11] = Hydrophobicity of compound; format: physicochemical
[12] = Relative hydrophobic moment of compound; format: physicochemical
[13] = test system: Staphylococcus aureus; test: Antibacterial activity against methicillin-resistant Staphylococcus aureus 43300 incubated for 12 to 18 hrs by microbroth dilution method; format: functional; details: time 12-18 hrs
[14] = test system: Staphylococcus aureus; test: Antibacterial activity against Staphylococcus aureus 25923 incubated for 12 to 18 hrs by microbroth dilution method; format: functional; details: time 12-18 hrs
[15] = test system: Pseudomonas aeruginosa; test: Antibacterial activity against Pseudomonas aeruginosa 27853 incubated for 12 to 18 hrs by microbroth dilution method; format: functional; details: time 12-18 hrs
[16] = test system: Escherichia coli; test: Antibacterial activity against Escherichia coli 1515 incubated for 12 to 18 hrs by microbroth dilution method; format: functional; details: time 12-18 hrs
[17] = test system: Escherichia coli; test: Antibacterial activity against Escherichia coli K99 incubated for 12 to 18 hrs by microbroth dilution method; format: functional; details: time 12-18 hrs
[18] = test system: Salmonella typhimurium; test: Antibacterial activity against Salmonella typhimurium 7731 incubated for 12 to 18 hrs by microbroth dilution method; format: functional, Salmonella enterica subsp. enterica serovar Typhimurium; details: Salmonella enterica, time 12-18 hrs
[19] = test system: Staphylococcus epidermidis; test: Antibacterial activity against Staphylococcus epidermidis 12228 incubated for 12 to 18 hrs by microbroth dilution method; format: functional; details: time 12-18 hrs
[20] = test system: Pseudomonas aeruginosa; test: Antibacterial activity against Pseudomonas aeruginosa PAO1 incubated for 12 to 18 hrs by microbroth dilution method; format: functional; details: time 12-18 hrs
[21] = test system: Escherichia coli; test: Antibacterial activity against Escherichia coli 078 incubated for 12 to 18 hrs by microbroth dilution method; format: functional; details: time 12-18 hrs
[22] = test system: Staphylococcus aureus; test: Antibacterial activity against Staphylococcus aureus 29213 incubated for 12 to 18 hrs by microbroth dilution method; format: functional; details: time 12-18 hrs
[23] = test system: Escherichia coli; test: Antibacterial activity against Escherichia coli K88 incubated for 12 to 18 hrs by microbroth dilution method; format: functional; details: time 12-18 hrs

CC[C@@H](C)[C@H](NC(=O)CNC(=O)[C@@H]1CCCN1C(=O)[C@H](CCCCN)NC(=O)[C@H](Cc1c[nH]c2ccccc12)NC(=O)[C@@H](NC(=O)[C@H](CCCCN)NC(=O)[C@H](CCCCN)NC(=O)[C@H](Cc1c[nH]c2ccccc12)NC(=O)[C@H](Cc1ccc(O)cc1)NC(=O)[C@H](CCCCN)NC(=O)[C@@H](NC(=O)[C@H](CC(C)C)NC(=O)[C@H](CC(N)=O)NC(=O)CNC(=O)[C@H](CO)NC(=O)CCCC[C@@H]1SC[C@@H]2NC(=O)N[C@@H]21)[C@@H](C)O)[C@@H](C)CC)C(=O)N[C@@H](CCCCN)C(=O)N[C@@H](CCCCN)C(=O)N[C@@H](Cc1c[nH]c2ccccc12)C(=O)N[C@H](C(=O)N[C@@H](CCCCN)C(=O)O)[C@H](C)CC
Activity [1]: Active
Activity [2]: Active

CC[C@H](C)[C@H](NC(=O)CN)C(=O)NCC(=O)N[C@@H](C)C(=O)N[C@H](C(=O)N[C@@H](CC(C)C)C(=O)N[C@@H](CCCCN)C(=O)N[C@H](C(=O)N[C@@H](CC(C)C)C(=O)N[C@H](C(=O)N[C@H](C(=O)NCC(=O)N[C@@H](CC(C)C)C(=O)N1CCC[C@H]1C(=O)N[C@@H](C)C(=O)N[C@@H](CC(C)C)C(=O)N[C@H](C(=O)N[C@@H](CO)C(=O)N[C@@H](Cc1c[nH]c2ccccc12)C(=O)N[C@H](C(=O)N[C@@H](CCCCN)C(=O)N[C@@H](CCCNC(=N)N)C(=O)N[C@@H](CCCCN)C(=O)N[C@@H](CCCNC(=N)N)C(=O)N[C@@H](CCC(N)=O)C(=O)N[C@@H](CCC(N)=O)C(N)=O)[C@@H](C)CC)[C@@H](C)CC)[C@@H](C)O)[C@@H](C)O)C(C)C)C(C)C [MELITTIN]
MIC [3]: 2 µM (≈ 5.69 µg/mL)
hemolysis at up to 128 µM [4]: < 5%
viability at 4 h, 128 µM [5]: > 80%
MIC [6]: 2 µM (≈ 5.69 µg/mL)
MIC [7]: 2 µM (≈ 5.69 µg/mL)
MIC [8]: 4 µM (≈ 11.4 µg/mL)
viability at 4 h, 128 µM [9]: > 80%
MIC [10]: 2 µM (≈ 5.69 µg/mL)

H-CFASAPRWKKIWKPGIKKWIK-OH [listing 1 of 2 here]
Activity [11]: 0.502
hemolysis at up to 128 µM [4]: < 5%
viability at 4 h, 128 µM [5]: > 80%
Activity [12]: 0.562
viability at 4 h, 128 µM [9]: > 80%

H-CFASAPRWKKIWKPGIKKWIK-OH [listing 2 of 2 here]
MIC [3]: 128 µM
MIC [13]: 128 µM
MIC [14]: 128 µM
MIC [15]: 32 µM
MIC [16]: 8 µM
MIC [6]: 128 µM
MIC [17]: 16 µM
MIC [18]: 16 µM
MIC [7]: 128 µM
MIC [8]: 16 µM
MIC [10]: 128 µM
MIC [19]: 128 µM
MIC [20]: 8 µM
MIC [21]: 16 µM
MIC [22]: 128 µM
MIC [23]: 8 µM

H-EMPGYNSWKKIWKPGIKKWIK-OH
MIC [3]: 128 µM
Activity [11]: 0.408
MIC [13]: 128 µM
MIC [14]: 128 µM
hemolysis at up to 128 µM [4]: < 5%
viability at 4 h, 128 µM [5]: > 80%
MIC [15]: 64 µM
MIC [16]: 64 µM
MIC [6]: 128 µM
MIC [17]: 32 µM
MIC [18]: 64 µM
Activity [12]: 0.475
MIC [7]: 128 µM
MIC [8]: 64 µM
viability at 4 h, 128 µM [9]: > 80%
MIC [10]: 128 µM
MIC [19]: 128 µM
MIC [20]: 32 µM
MIC [21]: 128 µM
MIC [22]: 128 µM
MIC [23]: 32 µM

H-FASSHPSWKKIWKPGIKKWIK-OH
MIC [3]: 128 µM
Activity [11]: 0.465
MIC [13]: 128 µM
MIC [14]: 128 µM
viability at 4 h, 128 µM [5]: > 80%
MIC [15]: 32 µM
MIC [16]: 32 µM
MIC [6]: 128 µM
MIC [17]: 32 µM
MIC [18]: 16 µM
Activity [12]: 0.55
MIC [7]: 128 µM
MIC [8]: 16 µM
viability at 4 h, 128 µM [9]: > 80%
MIC [10]: 128 µM
MIC [19]: 128 µM
MIC [20]: 16 µM
MIC [21]: 32 µM
MIC [22]: 128 µM
MIC [23]: 32 µM

H-HSDANAWWKKIWKPGIKKWIK-OH
MIC [3]: 128 µM
Activity [11]: 0.406
MIC [13]: 128 µM
MIC [14]: 128 µM
viability at 4 h, 128 µM [5]: > 80%
MIC [15]: 32 µM
MIC [16]: 16 µM
MIC [6]: 128 µM
MIC [17]: 16 µM
MIC [18]: 32 µM
Activity [12]: 0.455
MIC [7]: 128 µM
MIC [8]: 16 µM
viability at 4 h, 128 µM [9]: > 80%
MIC [10]: 128 µM
MIC [19]: 128 µM
MIC [20]: 16 µM
MIC [21]: 8 µM
MIC [22]: 128 µM
MIC [23]: 32 µM

H-RLTTMVHWKKIWKPGIKKWIK-OH
MIC [3]: 128 µM
Activity [11]: 0.51
MIC [13]: 128 µM
MIC [14]: 128 µM
hemolysis at up to 128 µM [4]: < 5%
viability at 4 h, 128 µM [5]: > 80%
MIC [15]: 8 µM
MIC [16]: 8 µM
MIC [6]: 128 µM
MIC [17]: 8 µM
MIC [18]: 8 µM
Activity [12]: 0.439
MIC [7]: 128 µM
MIC [8]: 16 µM
viability at 4 h, 128 µM [9]: > 80%
MIC [10]: 128 µM
MIC [19]: 128 µM
MIC [20]: 4 µM
MIC [21]: 8 µM
MIC [22]: 128 µM
MIC [23]: 4 µM

H-WTSNDTAWKKIWKPGIKKWIK-OH
MIC [3]: 128 µM
Activity [11]: 0.41
MIC [13]: 128 µM
MIC [14]: 128 µM
hemolysis at up to 128 µM [4]: < 5%
viability at 4 h, 128 µM [5]: > 80%
MIC [15]: 128 µM
MIC [16]: 64 µM
MIC [6]: 128 µM
MIC [17]: 64 µM
MIC [18]: 64 µM
Activity [12]: 0.532
MIC [7]: 128 µM
MIC [8]: 64 µM
viability at 4 h, 128 µM [9]: > 80%
MIC [10]: 128 µM
MIC [19]: 128 µM
MIC [20]: 64 µM
MIC [21]: 128 µM
MIC [22]: 128 µM
MIC [23]: 64 µM

H-YTVSATYWKKIWKPGIKKWIK-OH
MIC [3]: 128 µM
Activity [11]: 0.517
MIC [13]: 128 µM
MIC [14]: 128 µM
hemolysis at up to 128 µM [4]: < 5%
viability at 4 h, 128 µM [5]: > 80%
MIC [15]: 32 µM
MIC [16]: 8 µM
MIC [6]: 128 µM
MIC [17]: 8 µM
MIC [18]: 8 µM
Activity [12]: 0.452
MIC [7]: 128 µM
MIC [8]: 16 µM
viability at 4 h, 128 µM [9]: > 80%
MIC [10]: 128 µM
MIC [19]: 128 µM
MIC [20]: 8 µM
MIC [21]: 8 µM
MIC [22]: 128 µM
MIC [23]: 8 µM
